Results published in US6197802A, “Fungicidal melithiazole derivatives” (American Cyanamid Co., priority 1997, dated 2001).
≈ marks a conversion by molar mass, not a printed value. Read-outs that look alike come from different tables or passages of the source.

Experiments:
Hansenula anomala = experiment: Serial dilution test, Minimum Inhibitory Concentration, Hansenula anomala (HNA); format: cell-based; details: read-out: MIC (HNA)
Experimental: (§1) Determination of Minimum Inhibitory Concentration by Test Compounds in the Serial Dilution Test with Botrytis cinera (BOC), and Hansenula anomala (HNA).
(§2) The MIC (Minimum Inhibitory Concentration) value, which indicates the lowest concentration of the active ingredient in the growth medium which causes a total inhibition of mycelial growth, is determined by serial dilution tests. The compounds of the invention have been compared with known melithiazole C. melithiazole C-amide and with the commercially available strobilurines kresoxim-methyl (BASF AG) and azoxystrobin (ZENECA).

[1] = tested on: mouse fibroblasts (cell line L929); experiment: Toxicity using mouse fibroblasts (cell line L929); format: cell-based; details: for Therapeutic Index: ratio toxicity IC50 (L929) / BOC-MIC
Excerpt: In addition, the toxicity IC50 of these compounds has been evaluated using mouse fibroblasts (cell line L929). The therapeutic index given is defined as the ratio between the toxicity and the BOC-MIC value (IC50 /MIC).

Botrytis cinera = experiment: Serial dilution test, Minimum Inhibitory Concentration, Botrytis cinera (BOC); format: cell-based; details: read-out: MIC (BOC)
Experimental: as §1, §2

Phytophthora infestans = format: in vivo; details: 1 d protective
[2] = tested on: powdery mildew (Erysiphe graminis) on wheat; experiment: Foliar systemicity in wheat leaves, wheat powdery mildew as indicator disease; details: for Systemicity distal (disease free zone) / Systemicity proximal (disease free zone): wheat leaves, band application of 400 ppm solution; for Systemicity distal (disease free zone): toward leaf apex; for Systemicity proximal (disease free zone): toward leaf base
Excerpt: Foliar systemicity: When the primary leaves of wheat planted in 8 cm diameter pots in the greenhouse were fully expanded, the plants were cut back to four leaves in each pot of which two were marked with a permanent marker 5 cm below the leaf tip on the upper leaf surface. Thus there were two band-treated and two untreated plants in each pot. […] The application band covered the whole leaf width. After application and after the bands were dried, the plants were moved to the greenhouse and kept there for 2 days to allow for movement of the compounds. The plants were kept by bottom watering. The plants were then inoculated by dusting them with powdery mildew conidia (Erysiphe graminis). Evaluations were made 7-8 days after inoculation. Distal and proximal movement were assessed as follows: The distal and proximal disease free zones on the upper leaf surface were measured in mm. The distal direction is from the band toward the leaf apex and the proximal direction is from the band towards the leaf base.

phytopathogenic fungi = experiment: Curative in-vivo tests, overall statement; details: overall statement in words
Experimental: Test Plants: Test plants were grown up in the greenhouse. Either seed, pregerminated seed or rooted vegetative plant material was planted in pots containing a fertilized soil/peat mixture. Test plants were used for treating them with the various fungicides when they were in the 3-4 leaf stage. The number of leaves of vegetatively propagated plant material was cut back to 3-4 leaves per plant.
Application: Test plants were treated with fungicides either 1 or 3 days before (protective treatments) or 2 or 3 days after (curative treatments) the inoculation with a pathogen. The test compounds were applied to the test plants using a lateral-nozzle sprayer with a turntable rotating the pots, or the test compounds were applied with an hand-held airbrush. 24 plants were used per treatment.
Compounds: Technical material of the compound according to the invention coded MCM, and of commercially available strobilurines kresoxim-methyl (BASF) and azoxystrobin (ZENECA) was dissolved in acetone with 0.5% Triton X155 at a concentration of 0.5%. […]
Assessment of diseases: The percentage of leaf area infected was assessed by visual estimation when untreated control plants were just completely diseased. Each plant was individually evaluated and then the mean infection rating was calculated for each treatment. The fungicidal activity was calculated using the following formula: [formula] […]

Plasmopara viticola [3] = experiment: Protective (1 d res) activity, grape downy mildew (GDM); format: in vivo; details: 1 d protective
Plasmopara viticola [4] = experiment: Curative (2 d cur) activity, grape downy mildew (GDM); format: in vivo; details: 2 d curative
Pyrenophora teres = experiment: Protective (1 d res) activity, barley net blotch (BNB); format: in vivo; details: 1 d protective
Bortrytis cinera = details: poster of B. Bohlendorf et al., 1996; cited from earlier work
[5] = total inhibition of mycelial growth
[6] = toxicity, mouse fibroblasts L929, read-out: IC50
[7] = Botrytis cinera, total inhibition of mycelial growth

| Structure (SMILES) | MIC (Hansenula anomala; [5]) [µg/mL] | Therapeutic Index [1] | IC50 [1, 6] [µg/mL] | MIC (Botrytis cinera; [7]) [µg/mL] | other results |
| --- | --- | --- | --- | --- | --- |
| CCOC(=O)/C=C(/OC)[C@H](C)[C@H](/C=C/c1csc(C(C)=NOC)n1)OC (mixture of isomers) [(E/Z)-(13/14)] | 0.02 | 40 | 0.2 | 0.005 |  |
| CON=C(C)c1nc(/C=C/[C@H](OC)[C@@H](C)/C(=C\C(=O)OC)OC)cs1 (mixture of isomers) [MCM] |  |  |  |  | activity (%) TLB 1 d res (Phytophthora infestans; dose 4 ppm): 25%; activity (%) TLB 1 d res (Phytophthora infestans; dose 20 ppm): 65%; foliar systemicity ([2]; overall statement in words): better than that of the commercialized strobilurine derivatives kresoxim-methyl and azoxystrobin; bioavailable ([2]; plant, implied by foliar systemicity and curative values): readily and highly bioavailable; Systemicity distal (disease free zone) [2]: 50 mm; Systemicity proximal (disease free zone) [2]: 21 mm; curative activity (phytopathogenic fungi): better than that of the commercialized strobilurine derivatives kresoxim-methyl and azoxystrobin; activity (%) GDM 1 d res (Plasmopara viticola [3]; dose 4 ppm): 92%; activity (%) GDM 1 d res (Plasmopara viticola [3]; dose 20 ppm): 100%; activity (%) GDM 2d cur (Plasmopara viticola [4]; dose 4 ppm): 0%; activity (%) GDM 2d cur (Plasmopara viticola [4]; dose 20 ppm): 59%; activity (%) BNB 1 d res (Pyrenophora teres; dose 4 ppm): 100%; activity (%) BNB 1 d res (Pyrenophora teres; dose 20 ppm): 100% |
| CO/C(=C/C(N)=O)[C@H](C)[C@H](/C=C/c1csc(C(C)=O)n1)OC [1:melithiazole C-amide, 7-(2-acetylthiazol-4-yl)-3,5-dimethoxy-4-methylheptan-2,6-dienoic amide, reference compound] | > 10 | < 0.8 | 8 (≈ 24.7 µM) | > 10 |  |
| COC(=O)/C=C(/OC)[C@H](C)[C@H](/C=C/c1csc(C(C)=O)n1)OC [2:melithiazole C, methyl 7-(2-acetylthiazol-4-yl)-3,5-dimethoxy-4-methylheptan-2,6-dienoate, reference compound] | 3 (≈ 8.84 µM) | 0.37 | 0.55 (≈ 1.62 µM) | 1.5 (≈ 4.42 µM) | in vitro activity against Bortrytis cinera (Bortrytis cinera): weak in vitro activity |
| CO/N=C(\C)c1nc(/C=C/[C@H](OC)[C@@H](C)/C(=C\C(=O)OC)OC)cs1 [8:(E)-MCM] | 0.08 (≈ 0.217 µM) | 160 | 0.4 (≈ 1.09 µM) | 0.0025 (≈ 0.00679 µM) |  |
| CO/N=C(/C)c1nc(/C=C/[C@H](OC)[C@@H](C)/C(=C\C(=O)OC)OC)cs1 [8:(Z)-MCM] | 0.08 (≈ 0.217 µM) | 100 | 0.5 (≈ 1.36 µM) | 0.005 (≈ 0.0136 µM) |  |
| COC(=O)/C=C(/OC)[C@H](C)[C@H](/C=C/c1csc(/C(C)=N\OCc2ccccc2)n1)OC [Example 9] | 0.6 (≈ 1.35 µM) | 3.33 | 0.5 (≈ 1.12 µM) | 0.15 (≈ 0.337 µM) |  |
| COC(=O)/C=C(/OC)[C@H](C)[C@H](/C=C/c1csc(/C(C)=N/OCc2ccccc2)n1)OC [Example 10] | 0.3 (≈ 0.675 µM) | 1.25 | 0.05 (≈ 0.112 µM) | 0.04 (≈ 0.09 µM) |  |
| COC(=O)/C=C(/OC)[C@H](C)[C@H](/C=C/c1csc(C(C)OC(C)=O)n1)OC (some centres unmarked) [Example 20, Methyl 7-[2-(1-acetoxyethyl)thiazol-4-yl]-3,5-dimethoxy-4-methylheptan-2,6-dienoate] | 1.25 (≈ 3.26 µM) | > 13.33 | > 4 | 0.3 (≈ 0.782 µM) |  |
| COC(=O)/C=C(/OC)[C@H](C)[C@H](/C=C/c1csc(C(C)OC)n1)OC (some centres unmarked) [Example 21, Methyl 7-[2-(1-methoxyethyl)thiazol-4-yl]-3,5-dimethoxy-4-methylheptan-2,6-dienoate] | 0.08 (≈ 0.225 µM) | 13.33 | 2 (≈ 5.63 µM) | 0.15 (≈ 0.422 µM) |  |
| C=C(C)c1nc(/C=C/[C@H](OC)[C@@H](C)/C(=C\C(=O)OC)OC)cs1 [Example 29, Methyl 7-[2-isopropenylthiazol-4-yl]-3,5-dimethoxy-4-methylheptan-2,6-dienoate] |  | 100 |  |  | MIC (Hansenula anomala): 0.3 µg/mL (≈ 0.889 µM); IC50 ([1]; Mus musculus, L929): 2 µg/mL (≈ 5.93 µM); MIC (Botrytis cinera; Botrytis): 0.02 µg/mL (≈ 0.0593 µM) |
| COC(=O)/C=C(/OC)[C@H](C)[C@H](/C=C/c1csc(C2(C)CO2)n1)OC (some centres unmarked) [Example 41, Methyl 7-[2-(1,2-epoxy-1-methylethyl)thiazol-4-yl]-3,5-dimethoxy-4-methylheptan-2,6-dienoate] |  | > 6.17 |  |  | MIC (Hansenula anomala): 5 µg/mL (≈ 14.1 µM); IC50 ([1]; Mus musculus, L929): > 3.7 µg/mL; MIC (Botrytis cinera; Botrytis): 0.6 µg/mL (≈ 1.7 µM) |
| CO/C=C(/C(=O)OC)c1ccccc1Oc1cc(Oc2ccccc2C#N)ncn1 [azoxystrobin, reference compound] |  |  |  |  | Systemicity distal (disease free zone) [2]: 43 mm; Systemicity proximal (disease free zone) [2]: 9 mm |
| CO/N=C(/C(=O)OC)c1ccccc1COc1ccccc1C [kresoxim-methyl, reference compound] |  | 3.75 | 0.375 (≈ 1.2 µM) | 0.1 (≈ 0.319 µM) | Systemicity distal (disease free zone) [2]: 23 mm; Systemicity proximal (disease free zone) [2]: 13 mm; activity (%) GDM 1 d res (Plasmopara viticola [3]; dose 4 ppm): 39%; activity (%) GDM 1 d res (Plasmopara viticola [3]; dose 20 ppm): 87%; activity (%) GDM 2d cur (Plasmopara viticola [4]; dose 4 ppm): 0%; activity (%) GDM 2d cur (Plasmopara viticola [4]; dose 20 ppm): 9%; activity (%) BNB 1 d res (Pyrenophora teres; dose 4 ppm): 97%; activity (%) BNB 1 d res (Pyrenophora teres; dose 20 ppm): 98% |
